Assay [1] deals with T1, human CRTH2 (Homo sapiens, UniProt Q9Y5Y4).
T1 sequence (Q9Y5Y4 1-395): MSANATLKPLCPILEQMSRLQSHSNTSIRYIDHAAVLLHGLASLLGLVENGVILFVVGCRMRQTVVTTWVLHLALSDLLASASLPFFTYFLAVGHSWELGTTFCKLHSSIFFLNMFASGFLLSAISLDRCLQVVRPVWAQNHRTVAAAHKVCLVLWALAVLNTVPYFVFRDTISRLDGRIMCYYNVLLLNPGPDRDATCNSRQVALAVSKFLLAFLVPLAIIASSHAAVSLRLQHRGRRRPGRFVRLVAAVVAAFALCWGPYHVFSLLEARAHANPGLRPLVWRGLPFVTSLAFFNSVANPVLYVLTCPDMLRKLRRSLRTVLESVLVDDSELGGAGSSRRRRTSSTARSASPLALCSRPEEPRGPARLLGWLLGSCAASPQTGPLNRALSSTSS
As to the kind of experiment: CRTH2 fluorescent imaging assay (intracellular calcium). It counts as cell-based. More on the design: expressed in transfected cells; host or cells: HEK 293EBNA-hCRTH2 cells or HT1080-hCRTH2 cells. Conditions: for IC50: antagonism of PGD2-induced calcium increase, HEK 293EBNA-hCRTH2 or HT1080-hCRTH2 cells, read-out: RAGE hCRTH2 IC50; for approximate EC75 for PGD2: calcium response. The protocol: The ability of the disclosed compounds to act as agonists for the hCRTH2 receptor was determined by their ability to cause increases in intracellular calcium via binding to the CRTH2 receptor.
Assays were performed on HEK 293EBNA-hCRTH2 cells that had been grown in DMEM media containing 10% FBS, […] puromycin and 1% penicillin/streptomycin/glutamine (PSG) at 37° C. in 5% CO2 or on HT1080-hCRTH2 cells (a HT1080 cell line stably expressing human CRTH2) that had been grown in alphaMEM media containing 10% FBS, 500 μg/ml hygromycin, 200 nM methotrexate and 1% PSG at 37° C. in 5% CO2.
For the assay, HEK 293EBNA-hCRTH2 cells or HT1080-hCRTH2 cells were grown to approximately 90% confluency and then dislodged from the plate with Trypsin-EDTA, resuspended in DMEM media, seeded in 384 well plates at 2×10^4 cells per well and incubated overnight at 37° C. The cells were loaded with a calcium sensing dye by removing the growth media and replacing it with 30 μL of dye loading Ringer's buffer (136 mM […], 5.4 mM D-Glucose, 20 mM Hepes pH 7.4, 2.1 mM MgCl2, 0.8 mM CaCl2, 0.2% BSA with 1× Calcium3Dye (Molecular Devices) and 2.5 mM Probenecid (Sigma)) per well. The cells were incubated at 37° C. for 1 hour to allow the dye to enter the cells. Compounds were serially diluted in DMSO and then diluted to 4× their final concentration with Ringer's buffer. The compounds were added to a 384 well plate in quadruplicate. In addition to test compounds, several wells contained Ringer's buffer with DMSO. These wells serve as control wells. 10 μL was transferred from compound/control plate to the plate containing cells loaded with dye by a fluorescent imaging plate reader (Molecular Devices). The fluorescence was measured every 4 seconds for 4 minutes. These measurements indicated the level of intracellular calcium. Increases in fluorescence relative to wells containing buffer only indicated an agonist effect of the compound. Measurement at various compound concentrations allowed one to determine the EC50 for these compounds. Following the 4 minute incubation with compound, 20 μL of Ringer's buffer with either 10 nM or 500 nM PGD2 (approximate EC75 for PGD2 in HEK 293EBNA-hCRTH2 cells and HT1080-hCRTH2 cells, respectively) was added to the wells. Inhibition by the compounds of the calcium response due to antagonism of PGD2 action on CRTH2 is reflected by a decrease in fluorescent signal relative to wells containing no compound. The fluorescence was measured every 2 seconds for 10 seconds before addition of PGD2 and every 2 seconds for 110 seconds following addition. Measurement at various compound concentrations allowed one to determine the IC50 for the compounds. EC50 and IC50 values were determined from the experimental results by nonlinear regression using the Prism 4.0 software.
(In general: Calcium flux is commonly read through the fluorescence of an indicator in the cells.)

The target in assay [2] is T1, human CRTH2. Nature of the assay: CRTH-2 binding assay (scintillation proximity assay, inhibition of 3H-PGD2 binding). More on the design: expressed in transfected cells; host or cells: 293EBNA-hCRTH2 cells (membrane preparation). Particulars: membranes from 293EBNA-hCRTH2 cells, 3H-PGD2 3.6 nM; Ki calculated from IC50. As to the method: A CRTH2 binding assay was developed to measure the ability of compounds to inhibit the binding of PGD2 to human CRTH2 using a scintillation proximity assay.
Membranes containing hCRTH2 receptors were prepared from 293EBNA-hCRTH2 cells (a 293EBNA cell line stably expressing human CRTH2). The cells were grown to confluency, harvested and washed with PBS. The cells were resuspended in 10 mM Hepes pH 7.4, 1 mM EDTA and protease inhibitors and incubated for 30 min on ice. The cells were homogenized and centrifuged for 10 min at 1000×g. The supernate was centrifuged for 30 min at 100,000×g and the membrane pellet was then resuspended in 10 mM Hepes pH 7.4 and 1 mM EDTA. The protein concentration of the membrane preparation was determined by Bradford assay (Bio-Rad).
The ability of compounds to inhibit the interaction of PGD2 to human CRTH2 was determined at seven compound concentrations. Compounds were serially diluted in DMSO then diluted into CRTH2 buffer (10 mM Hepes pH 7.4, 1 mM EDTA, 10 mM MnCl2) to six times the final desired concentration. 20 μL of the diluted compounds were transferred into non-surface binding 96-well plates (Corning). Each concentration was done in triplicate. In addition to test compounds, each plate contained 12 control wells. Six of these wells contained 20 μL of CRTH2 buffer. These wells were used to measure total binding. Six wells contained 20 μL of CRTH2 buffer plus 1.5 mM indomethacin. These wells were used to measure non-specific binding. Next, 293EBNA-hCRTH2 membranes were resuspended in CRTH2 buffer with glycerol (10 mM Hepes pH 7.4, 1 mM EDTA, 10 mM MnCl2, 25% glycerol) so that the final concentration was approximately 20 μg/100 μL. Polylysine-coated yttrium silicate SPA beads (Amersham) were added to the membrane mix to a concentration of 0.4 mg/100 μL and finally ^3H-PGD2 was added to the membrane/SPA bead mix to 3.6 nM. 100 μL of the membrane/SPA bead/^3H-PGD2 mix was added to each well of the non-surface binding plates containing the diluted compound or controls. The plates were incubated for 2 hours at room temperature with shaking and then the plates were counted on a Microbeta scintillation counter (Perkin Elmer) for 1 min per well.
IC50 values were determined from the experimental results by nonlinear regression using Prism 4.0 software. The IC50 values were then used in conjunction with the Kd for hCRTH2 and the ^3H-PGD2 concentration used in the experiment to calculate the Ki for each compound.

Each structure is given as a SMILES string. Bounds are passed on as bounds.

These results are taken from patent publication US7732618B2, “Benzimidazole acetic acids exhibiting CRTH2 receptor antagonism and uses thereof” (Wyeth, priority 2004, dated 2010).

Turning to `CCCc1nc2cc(N(Cc3ccc(Cl)cc3)S(=O)(=O)c3ccc(F)cc3)ccc2n1CC(=O)O` [Example 43, {5-[(4-Chloro-benzyl)-(4-fluoro-benzenesulfonyl)-amino]-2-propyl-benzoimidazol-1-yl}-acetic acid], the half-maximal inhibitory concentration (IC50) – broadly, the point on the concentration scale where inhibition reaches its midpoint – on human CRTH2 [1] is 51 nM. Also, at human CRTH2 [2], the Ki (in general, the dissociation constant of the complex between target and ligand, obtained from inhibition or displacement) was below 100 nM. With `CCCc1nc2cc(N(C3CCCCC3)S(=O)(=O)c3ccc(F)cc3)ccc2n1CC(=O)O` [Example 46, {5-[(Cyclohexyl)-(4-fluoro-benzenesulfonyl)-amino]-2-propyl-benzoimidazol-1-yl}-acetic acid], the half-inhibitory concentration (IC50) on human CRTH2 [1] was 375 nM. Besides, the Ki on human CRTH2 [2] was below 1000 nM. `CCCc1nc2cc(N(CCOc3ccc(Cl)cc3)S(=O)(=O)c3ccc(F)cc3)ccc2n1CC(=O)O` [Example 47, {5-[[2-(4-Chloro-phenoxy)-ethyl]-(4-fluoro-benzenesulfonyl)-amino]-2-propyl-benzoimidazol-1-yl}-acetic acid]: at human CRTH2 [1], the half-inhibitory concentration (IC50) is 22 nM. Besides, the inhibition constant Ki at human CRTH2 [2] was below 100 nM. For the compound `CCCc1nc2cc(N(CCCOc3ccccc3)S(=O)(=O)c3ccc(F)cc3)ccc2n1CC(=O)O` [Example 49, {5-[(4-Fluoro-benzenesulfonyl)-(3-phenoxy-propyl)-amino]-2-propyl-benzoimidazol-1-yl}-acetic acid], the half-maximal inhibitory concentration (IC50) at human CRTH2 [1] turned out to be 47 nM. For the same compound, the inhibition constant (Ki) at human CRTH2 [2] was below 100 nM. As for `CCCc1nc2cc(N(Cc3ccccc3)C(=O)CC(C)C)ccc2n1CC(=O)O` [Example 59, {5-[Benzyl-(3-methyl-butyryl)-amino]-2-propyl-benzoimidazol-1-yl}-acetic acid], the Ki on human CRTH2 [2] is below 10000 nM. As for `CCCc1nc2cc(N(Cc3ccccc3)C(=O)C3CCCC3)ccc2n1CC(=O)O` [Example 60, [5-(Benzyl-cyclopentanecarbonyl-amino)-2-propyl-benzoimidazol-1-yl]-acetic acid], the Ki on human CRTH2 [2] was below 10000 nM. Same read-out and setting: next, `CCCc1nc2cc(N(Cc3ccccc3)C(=O)C3CCCCC3)ccc2n1CC(=O)O` [Example 61, [5-(Benzyl-cyclohexanecarbonyl-amino)-2-propyl-benzoimidazol-1-yl]-acetic acid]: below 10000 nM; `CCCc1nc2cc(N(Cc3ccccc3)C(=O)c3cccc(Cl)c3)ccc2n1CC(=O)O` [Example 62, {5-[Benzyl-(3-chloro-benzoyl)-amino]-2-propyl-benzoimidazol-1-yl}-acetic acid]: below 1000 nM. In the case of `CCCc1nc2cc(N(Cc3ccccc3)C(=O)c3ccc(Cl)cc3)ccc2n1CC(=O)O` [Example 63, {5-[Benzyl-(4-chloro-benzoyl)-amino]-2-propyl-benzoimidazol-1-yl}-acetic acid], the Ki on human CRTH2 [2] was below 1000 nM. On to `CCCc1nc2cc(N(Cc3ccccc3)C(=O)c3ccccc3F)ccc2n1CC(=O)O` [Example 64, {5-[Benzyl-(2-fluoro-benzoyl)-amino]-2-propyl-benzoimidazol-1-yl}-acetic acid], for which the Ki on human CRTH2 [2] was above 10000 nM. For the compound `CCCc1nc2cc(N(Cc3ccccc3)C(=O)c3cccc(F)c3)ccc2n1CC(=O)O` [Example 65, {5-[Benzyl-(3-fluoro-benzoyl)-amino]-2-propyl-benzoimidazol-1-yl}-acetic acid], the Ki at human CRTH2 [2] was below 10000 nM. On the same count and under the same terms, next, `CCCc1nc2cc(N(Cc3ccccc3)C(=O)c3ccc(F)cc3)ccc2n1CC(=O)O` [Example 66, {5-[Benzyl-(4-fluoro-benzoyl)-amino]-2-propyl-benzoimidazol-1-yl}-acetic acid]: below 1000 nM; `CCCc1nc2cc(N(Cc3ccccc3)C(=O)c3ccc(F)c(F)c3)ccc2n1CC(=O)O` [Example 67, {5-[Benzyl-(3,4-difluoro-benzoyl)-amino]-2-propyl-benzoimidazol-1-yl}-acetic acid]: below 1000 nM; `CCCc1nc2cc(N(Cc3ccccc3)C(=O)c3c(F)cccc3F)ccc2n1CC(=O)O` [Example 68, {5-[Benzyl-(2,6-difluoro-benzoyl)-amino]-2-propyl-benzoimidazol-1-yl}-acetic acid]: below 10000 nM. Turning to `CCCc1nc2cc(N(Cc3ccccc3)C(=O)c3sccc3C)ccc2n1CC(=O)O` [Example 69, {5-[Benzyl-(3-methyl-thiophene-2-carbonyl)-amino]-2-propyl-benzoimidazol-1-yl}-acetic acid], the Ki at human CRTH2 [2] is below 100 nM. With `CCCc1nc2cc(N(Cc3ccccc3)C(=O)c3cccs3)ccc2n1CC(=O)O` [Example 70, {5-[Benzyl-(thiophene-2-carbonyl)-amino]-2-propyl-benzoimidazol-1-yl}-acetic acid], the half-maximal inhibitory concentration (IC50) at human CRTH2 [1] stood at 7 nM. Besides, the Ki on human CRTH2 [2] is below 100 nM. `CCCCC[C@H](O)/C=C/[C@H]1C(=O)C[C@H](O)[C@@H]1C/C=C\CCCC(=O)O` [PGD2, prostaglandin D2, reference compound]: the “approximate EC75 for PGD2” value is reported as around 10 nM at human CRTH2 [1] (HEK 293EBNA-hCRTH2 cells) and around 500 nM at human CRTH2 [1] (HT1080-hCRTH2 cells).
